Data published in paper PMC4684281, “Antitumor Effects and Mechanism of Novel Emodin Rhamnoside Derivatives against Human Cancer Cells In Vitro” (PLoS ONE, 2015).
Several values for one entry are separate records, joined by “and”; a condition that tells them apart may be missing. Identical values can stand only once.

Legend:
HepG2 cells [1] = test: Fluorescence microscopy assay (Hoechst 33342); format: cell-based, Human; conditions: HepG2, varying concentrations (0.1μM; 0.5μM; 2.5μM), 48h, dosage-dependent
Method: HepG2 cells were inoculated in duplicate at 3×10^5/well density in 6-well plate, and allowed to attach at 37°C for 24 hours. Afterwards, cells were treated with 10 μM HCPT, 25 μM emodin and specific concentration EM-d-Rha (0.1μM, 0.5μM, 2.5μM), respectively. Cell control group was set in the same way. […] Medium were exchanged as described previously. In the end, all medium were discarded and cells were digested with 2mL 0.25% Trypsin-EDTA solution at 37°C for 5 min. After cells were harvested, cells were washed with PBS twice followed by centrifuging at 300×g for 5 minutes. Finally, cells were re-suspended in 100μL cold PBS after the supernatant was discarded. Cells were cultured in the dark for 10 minutes at room temperature after adding 100μL 1mg/mL Hoechst 33342 staining solution. Cells were harvested again as described previously to discard the staining solution. Wash the harvested cells twice with PBS before applying to the clean glass slides. The morphological changes of cells nuclei were observed and photographed under the fluorescence microscope (Olympus, Japan) at 350 nm excitation wavelength. The experiment was repeated three times.

[2] = system: HepG2 mitochondrial membrane potential (ΔΨm); test: Mitochondrial membrane potential (Rhodamine123, flow cytometry); format: cell-based, Human; conditions: HepG2, 5.0μM
Method: HepG2 cells were inoculated in 10cm diameter culture plates at a density of 5×10^5 cells, and allowed to attach at 37°C for 24 hours. Afterwards, cells were treated with 5.0μM EM-d-Rha for 0, 24h, 48h and 72h respectively. Cells were incubated in a humidified incubator supplied with 5% CO2 at 37°C for 72 hours. Medium were exchanged once every 24 hours. The harvested cells of each sample were suspended in 500μL PBS before adding 5 μL Rhodamine123. Then samples were incubated at 37°C in the dark for 15 min. Cells were again collected by centrifugation at 300×g for 5 minutes and the supernatant was discarded. The cell pellets were washed twice with 4°C PBS. Finally cells of all samples were resuspended in 500μL PBS. Before performing assay, adjusting excitation wavelength and emission wavelength to 480nm, 520nm respectively, the ΔΨm changes of HepG2 mitochondrial were measured with a flow cytometer (BD FACSCalibur, BD Biosciences, US). The experiment was repeated at least three times.

HepG2 cells [3] = test: Morphological analysis (bright-field microscopy); format: cell-based, Human; conditions: HepG2, 0.1-62.5μM, 48 h, dose dependent
Method: For morphological observation, HepG2 cells in logarithmic growth phase were seeded in a 96-well plate at the density of 1×10^4/well with 0.2 mL complete medium containing 10% fetal calf serum. Cells were allowed to attach at 37°C for 24 hours. Then cells were treated with EM-d-Rha and HCPT at a specific concentration. Each group has six parallel wells. […] Medium were exchanged once every 24 hours.

HUVEC = test: MTT cell viability assay, HUVEC; format: cell-based; conditions: Homo sapiens, MTT at 72h, n=3, mean±S.E.M, read-out: IC50 for EM-d-Rha, HUVEC
Method: (§1) The viability of cancer cells was evaluated by MTT assay. Briefly, cells were inoculated in 96-well culture plates at the density of 1×10^4/well with complete medium containing 10% fetal calf serum in a final volume of 0.2 mL. Cells were incubated at 37°C for at least 24 hours to allow optimal attachment. When the cells reached 60% confluence, they were treated with Cisplatin, HCPT and emodin rhamnopyranosides derivatives in various concentrations, and incubated in a humidity-controlled 5%CO2 incubator at 37°C for 72 hours. Medium were exchanged once every 24 hours. Cell control group and blank group were set up in the same manner, with each group having six parallel wells. Cell survival was assessed by directly adding 22 μL of 5mg/mL MTT to 0.2 mL medium. After three hours, the formazan precipitate was dissolved in 200μL isopropanol per well, and completely mixed under room temperature. Afterwards, the optical density of each well was detected at 570 nm wavelength by iMark microplate reader (Bio-rad,USA). This experiment was repeated at least three times.

MCF-7 cells = test: MTT cell viability assay, MCF-7; format: cell-based; conditions: Homo sapiens, MCF7
Method: as §1

HepG2 cells [4] = test: DNA ladder assay; format: cell-based, Human; conditions: HepG2, 2.5μM, 5.0μM and 10.0μM
Method: DNA ladder formation is an important criterion to determine cells apoptosis. To confirm the apoptosis induction effect, the analysis of DNA fragmentation was conducted. HepG2 cells in logarithmic growth phase were inoculated in 10cm diameter culture plates at a density of 5×10^5 cells with 12 mL complete medium containing 10% fetal calf serum, and allowed to attach at 37°C for 24 hours. Afterwards, cells were treated with EM-d-Rha and Cisplatin at a specific concentration. Cells were cultured and harvested as described previously. Finally, DNA of all samples was extracted using the apoptosis DNA ladder detection kit following the manufacturer’s instructions. The DNA fragmentation was assayed by electrophoresis on a 1.5% agarose gel containing […] ethidium bromide (EtBr) at 5V/cm for 2.5hours and photographed under ultraviolet. The size of the DNA fragmentation was compared with the marker (molecular weight standard).

OVCAR-3 cells = test: Flow cytometry apoptosis analysis (Annexin V/7-AAD), OVCAR-3; format: cell-based, Human; conditions: 48h (Fig 8 legend: 72h); for Late apoptosis: control 4.87±1.42; for Early apoptosis: control 13.01±5.81; for Living cell: control 81.36±8.14
[5] = OVCAR-3, 10μM, listed as EM-d-Rha

CC(=O)O[C@@H]1[C@@H](O[C@@H]2O[C@@H](C)[C@H](O)[C@@H](OC(C)=O)[C@H]2OC(C)=O)[C@H](C)O[C@@H](Oc2cc(O)c3c(c2)C(=O)c2cc(C)cc(O)c2C3=O)[C@@H]1OC(C)=O [S-8, 3-(2”,3”-Di-O-acetyl-α-L-rhamnopyranosyl-(1→4)-2’,3’-di-O-acetyl-α-L-rhamnopyranosyl)-emodin] was tested, and the “Nuclear morphology, Hoechst 33342” value (HepG2 cells [1]) was “nuclear shrinkage and DNA condensation”, the “Percentage of ΔΨm (Vs. control group)” value ([2]; 24 h) was 82.22±5.97 % and the “Percentage of ΔΨm (Vs. control group)” value ([2]; 48 h) was 53.21±9.71 %. For the same molecule, the “Percentage of ΔΨm (Vs. control group)” value ([2]; 72 h, listed as EM-d-Rha) was 31.77±2.84%, the “Cell morphology (bright-field)” value (HepG2 cells [3]) was “morphological changes of apoptosis such as reduction in cell volume and losing cell-cell contacts” and the IC50 (HUVEC) was 18.7 ± 3.9 µM. The inhibition at 0.1 µM (MCF-7 cells; MCF-7, 0.1μM, MTT 72h, read-out: The inhibition rate of EM-d-Rha) was 16.8 ± 1.4%, the inhibition at 0.5 µM (MCF-7 cells; MCF-7, 0.5μM, MTT 72h, read-out: The inhibition rate of EM-d-Rha) was 20.1 ± 3.83% and the inhibition at 2.5 µM (MCF-7 cells; MCF-7, 2.5μM, MTT 72h, read-out: The inhibition rate of EM-d-Rha) was 41.4 ± 6.53%. It also gave an inhibition at 12.5 µM (MCF-7 cells; MCF-7, 12.5μM, MTT 72h, read-out: The inhibition rate of EM-d-Rha) of 62.7 ± 6.81%, an inhibition at 62.5 µM (MCF-7 cells; MCF-7, 62.5μM, MTT 72h, read-out: The inhibition rate of EM-d-Rha) of 77.1 ± 5.1% and an IC50 (MCF-7 cells; MTT at 72h, n=3, mean±S.E.M, read-out: IC50 for EM-d-Rha, MCF-7) of 8.56 ± 1.04 µM. The “DNA fragmentation (agarose gel electrophoresis)” value (HepG2 cells [4]) was “typical ladder or fragmentation shape”, the Late apoptosis (OVCAR-3 cells; OVCAR-3, 2.5μM) was 3.30±2.95% and the Early apoptosis (OVCAR-3 cells; OVCAR-3, 2.5μM) was 70.60±23.06 %. The Living cell (OVCAR-3 cells; OVCAR-3, 2.5μM) was 25.82±20.14 %, the Late apoptosis (OVCAR-3 cells; OVCAR-3, 5μM) was 0.81±0.05 % and the Early apoptosis (OVCAR-3 cells; OVCAR-3, 5μM) was 90.52±0.20 %. For the same molecule, the Living cell (OVCAR-3 cells; OVCAR-3, 5μM) was 8.60±0.19 %, the Late apoptosis (OVCAR-3 cells; OVCAR-3, 10μM) was 0.35±0.06 % and the Early apoptosis (OVCAR-3 cells; [5]) was 95.09% and 95.09±1.03 %. For the same molecule, the Living cell (OVCAR-3 cells; [5]) was 4.53% and 4.53±0.99 %.
